Blank lines part the entries; values can stand above or below the compound they belong to.
How the values were obtained:
[1] = biological target: Casein kinase I isoform gamma-1 (Homo sapiens) (UniProt Q9HCP0); conditions: at 10 µM
[2] = biological target: Myosin light chain kinase 2, skeletal/cardiac muscle (Homo sapiens) (UniProt Q9H1R3); conditions: at 10 µM
[3] = biological target: T1, Ephrin type-B receptor 6 (Homo sapiens) (UniProt O15197); assay: Selectivity interaction (KinomeScan (DiscoverX)) EUB0000595a EPHB6; conditions: at 10 µM
T1 sequence (whole entry): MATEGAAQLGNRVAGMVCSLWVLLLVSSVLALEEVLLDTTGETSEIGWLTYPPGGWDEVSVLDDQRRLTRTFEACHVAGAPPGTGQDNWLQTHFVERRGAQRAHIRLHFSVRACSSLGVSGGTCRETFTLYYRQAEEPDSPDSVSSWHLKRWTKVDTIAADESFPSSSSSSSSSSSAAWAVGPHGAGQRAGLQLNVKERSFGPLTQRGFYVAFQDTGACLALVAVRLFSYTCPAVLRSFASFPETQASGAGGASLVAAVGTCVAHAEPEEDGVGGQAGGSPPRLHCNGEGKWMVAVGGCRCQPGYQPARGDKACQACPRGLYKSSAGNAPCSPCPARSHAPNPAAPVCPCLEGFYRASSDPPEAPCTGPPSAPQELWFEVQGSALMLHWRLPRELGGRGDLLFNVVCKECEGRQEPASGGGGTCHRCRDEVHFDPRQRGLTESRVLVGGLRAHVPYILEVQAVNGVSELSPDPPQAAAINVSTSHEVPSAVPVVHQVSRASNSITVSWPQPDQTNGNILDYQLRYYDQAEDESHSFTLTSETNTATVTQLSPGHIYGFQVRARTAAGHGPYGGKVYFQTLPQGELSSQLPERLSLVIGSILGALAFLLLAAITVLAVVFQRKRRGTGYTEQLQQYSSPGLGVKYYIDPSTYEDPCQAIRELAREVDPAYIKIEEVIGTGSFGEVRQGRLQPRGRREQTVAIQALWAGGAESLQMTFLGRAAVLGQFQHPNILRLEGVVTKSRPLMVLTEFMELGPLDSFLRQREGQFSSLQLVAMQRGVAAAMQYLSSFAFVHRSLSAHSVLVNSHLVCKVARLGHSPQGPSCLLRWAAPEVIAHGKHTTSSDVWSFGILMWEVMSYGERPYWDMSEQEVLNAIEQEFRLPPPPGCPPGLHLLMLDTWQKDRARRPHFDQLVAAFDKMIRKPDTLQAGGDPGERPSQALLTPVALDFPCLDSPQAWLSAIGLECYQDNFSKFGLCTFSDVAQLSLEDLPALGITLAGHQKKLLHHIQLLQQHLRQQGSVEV

[4] = biological target: Rho-associated protein kinase 1 (Homo sapiens) (UniProt Q13464); assay: Selectivity interaction (KinomeScan (DiscoverX)) EUB0000595a ROCK1; conditions: at 10 µM
[5] = biological target: T2, Serine/threonine-protein kinase 17A (Homo sapiens) (UniProt Q9UEE5); assay: Selectivity interaction (KinomeScan (DiscoverX)) EUB0000595a STK17A; conditions: at 10 µM
T2 sequence (whole entry): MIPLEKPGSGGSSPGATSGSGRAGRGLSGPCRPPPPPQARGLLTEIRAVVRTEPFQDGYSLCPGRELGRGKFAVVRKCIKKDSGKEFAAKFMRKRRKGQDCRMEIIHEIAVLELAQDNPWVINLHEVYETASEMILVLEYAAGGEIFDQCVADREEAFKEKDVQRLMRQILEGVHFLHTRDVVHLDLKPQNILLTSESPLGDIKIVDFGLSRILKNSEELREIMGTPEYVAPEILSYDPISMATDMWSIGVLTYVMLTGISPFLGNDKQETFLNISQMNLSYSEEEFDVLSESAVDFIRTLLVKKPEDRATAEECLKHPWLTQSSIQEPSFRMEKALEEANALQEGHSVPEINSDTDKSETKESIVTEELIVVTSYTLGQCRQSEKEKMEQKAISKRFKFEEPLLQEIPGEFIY

[6] = biological target: G protein-coupled receptor kinase 4 (Homo sapiens) (UniProt P32298); assay: Selectivity interaction (KinomeScan (DiscoverX)) EUB0000229b GRK4; conditions: at 10 µM
[7] = biological target: T3, Bromodomain and PHD finger-containing protein 3 (Homo sapiens) (UniProt Q9ULD4); assay: Selectivity interaction (Human bromodomain panel (DSF assay)) EUB0000233b BRPF3
T3 sequence (whole entry): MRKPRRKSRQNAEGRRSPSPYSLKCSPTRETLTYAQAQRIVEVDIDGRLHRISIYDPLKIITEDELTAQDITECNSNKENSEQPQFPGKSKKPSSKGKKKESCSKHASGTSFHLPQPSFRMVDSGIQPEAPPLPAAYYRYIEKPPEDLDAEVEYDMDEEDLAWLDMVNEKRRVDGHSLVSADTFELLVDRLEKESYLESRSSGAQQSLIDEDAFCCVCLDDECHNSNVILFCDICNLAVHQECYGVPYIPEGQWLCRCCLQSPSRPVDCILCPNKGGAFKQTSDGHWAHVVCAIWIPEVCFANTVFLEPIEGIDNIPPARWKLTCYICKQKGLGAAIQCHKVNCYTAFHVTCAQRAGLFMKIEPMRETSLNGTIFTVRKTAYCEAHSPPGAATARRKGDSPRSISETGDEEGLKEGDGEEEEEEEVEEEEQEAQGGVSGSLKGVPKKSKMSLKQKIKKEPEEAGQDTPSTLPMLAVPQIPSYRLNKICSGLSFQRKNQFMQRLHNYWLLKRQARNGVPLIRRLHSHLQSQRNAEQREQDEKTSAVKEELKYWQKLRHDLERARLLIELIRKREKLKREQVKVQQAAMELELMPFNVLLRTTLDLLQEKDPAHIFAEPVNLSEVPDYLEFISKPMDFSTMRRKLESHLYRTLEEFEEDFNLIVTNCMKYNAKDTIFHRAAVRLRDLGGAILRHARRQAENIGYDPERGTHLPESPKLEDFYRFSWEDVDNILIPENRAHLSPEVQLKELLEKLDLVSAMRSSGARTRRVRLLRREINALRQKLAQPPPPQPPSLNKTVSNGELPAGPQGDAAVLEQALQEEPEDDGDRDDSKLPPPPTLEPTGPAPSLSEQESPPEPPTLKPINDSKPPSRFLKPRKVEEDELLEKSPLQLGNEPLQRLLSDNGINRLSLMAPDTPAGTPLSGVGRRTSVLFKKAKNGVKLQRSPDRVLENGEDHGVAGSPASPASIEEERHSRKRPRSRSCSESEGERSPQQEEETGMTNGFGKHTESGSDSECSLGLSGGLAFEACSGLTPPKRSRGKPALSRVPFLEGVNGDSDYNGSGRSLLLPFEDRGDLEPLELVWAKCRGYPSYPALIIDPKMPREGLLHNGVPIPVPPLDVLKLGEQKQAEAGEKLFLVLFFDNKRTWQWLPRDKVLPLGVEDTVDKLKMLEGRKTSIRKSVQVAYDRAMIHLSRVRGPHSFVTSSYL

[8] = biological target: Serine/threonine-protein kinase pim-1 (Homo sapiens, UniProt P11309); assay: Selectivity interaction (KinomeScan (DiscoverX)) EUB0001619a PIM1; conditions: at 1 µM
Chain of Serine/threonine-protein kinase pim-1 (P11309 whole entry, looked up): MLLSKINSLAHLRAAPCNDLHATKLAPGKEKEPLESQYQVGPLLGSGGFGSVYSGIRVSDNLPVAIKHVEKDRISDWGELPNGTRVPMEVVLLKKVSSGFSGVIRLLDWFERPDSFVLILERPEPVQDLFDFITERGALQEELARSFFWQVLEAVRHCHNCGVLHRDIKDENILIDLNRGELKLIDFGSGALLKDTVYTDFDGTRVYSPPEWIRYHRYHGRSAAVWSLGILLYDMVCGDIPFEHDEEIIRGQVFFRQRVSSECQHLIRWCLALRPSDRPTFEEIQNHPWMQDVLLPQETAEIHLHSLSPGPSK

Chain of Casein kinase I isoform gamma-1 (Homo sapiens) (Q9HCP0 whole entry, looked up, canonical isoform): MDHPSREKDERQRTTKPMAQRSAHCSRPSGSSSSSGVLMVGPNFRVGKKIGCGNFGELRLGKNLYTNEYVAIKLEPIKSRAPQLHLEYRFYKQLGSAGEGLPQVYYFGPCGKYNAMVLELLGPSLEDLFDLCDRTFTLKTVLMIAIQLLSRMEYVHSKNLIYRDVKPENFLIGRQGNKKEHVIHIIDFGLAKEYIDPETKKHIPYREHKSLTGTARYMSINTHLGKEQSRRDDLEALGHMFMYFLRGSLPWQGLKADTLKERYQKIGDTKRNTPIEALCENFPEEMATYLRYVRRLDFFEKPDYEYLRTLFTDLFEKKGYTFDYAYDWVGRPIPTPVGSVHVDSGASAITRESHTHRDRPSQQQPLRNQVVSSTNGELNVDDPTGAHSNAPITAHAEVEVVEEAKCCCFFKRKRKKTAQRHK
Chain of Myosin light chain kinase 2, skeletal/cardiac muscle (Homo sapiens) (Q9H1R3 whole entry): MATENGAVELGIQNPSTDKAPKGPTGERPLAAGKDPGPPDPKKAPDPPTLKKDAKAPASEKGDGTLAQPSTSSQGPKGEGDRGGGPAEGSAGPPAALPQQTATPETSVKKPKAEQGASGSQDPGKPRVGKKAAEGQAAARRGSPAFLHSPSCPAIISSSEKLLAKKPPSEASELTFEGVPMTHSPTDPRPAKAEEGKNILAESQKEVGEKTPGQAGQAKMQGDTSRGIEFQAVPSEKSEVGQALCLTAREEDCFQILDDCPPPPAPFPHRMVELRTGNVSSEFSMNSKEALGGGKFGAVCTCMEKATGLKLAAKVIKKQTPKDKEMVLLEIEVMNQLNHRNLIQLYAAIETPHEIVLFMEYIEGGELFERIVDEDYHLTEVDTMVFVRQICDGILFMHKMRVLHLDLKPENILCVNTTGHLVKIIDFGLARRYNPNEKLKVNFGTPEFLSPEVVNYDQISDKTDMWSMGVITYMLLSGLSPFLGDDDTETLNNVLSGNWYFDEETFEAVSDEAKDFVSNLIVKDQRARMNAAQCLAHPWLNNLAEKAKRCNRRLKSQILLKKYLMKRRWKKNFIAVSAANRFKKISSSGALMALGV
Chain of G protein-coupled receptor kinase 4 (Homo sapiens) (P32298 whole entry, looked up): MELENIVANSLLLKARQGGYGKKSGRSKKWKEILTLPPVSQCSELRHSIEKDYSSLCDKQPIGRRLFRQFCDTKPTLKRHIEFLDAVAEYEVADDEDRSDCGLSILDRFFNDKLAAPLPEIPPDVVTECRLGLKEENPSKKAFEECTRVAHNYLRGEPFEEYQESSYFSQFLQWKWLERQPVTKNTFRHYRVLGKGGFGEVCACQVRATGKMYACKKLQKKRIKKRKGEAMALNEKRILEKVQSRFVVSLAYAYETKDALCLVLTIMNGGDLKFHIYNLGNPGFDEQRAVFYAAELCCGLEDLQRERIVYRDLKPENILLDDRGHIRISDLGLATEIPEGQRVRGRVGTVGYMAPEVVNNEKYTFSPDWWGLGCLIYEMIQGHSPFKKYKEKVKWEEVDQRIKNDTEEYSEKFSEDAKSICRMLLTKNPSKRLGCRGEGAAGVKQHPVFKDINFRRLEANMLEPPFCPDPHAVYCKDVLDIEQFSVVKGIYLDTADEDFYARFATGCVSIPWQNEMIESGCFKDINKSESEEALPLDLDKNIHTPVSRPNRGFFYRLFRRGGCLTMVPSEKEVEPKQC
Chain of Rho-associated protein kinase 1 (Homo sapiens) (Q13464 2-1354 limits assumed): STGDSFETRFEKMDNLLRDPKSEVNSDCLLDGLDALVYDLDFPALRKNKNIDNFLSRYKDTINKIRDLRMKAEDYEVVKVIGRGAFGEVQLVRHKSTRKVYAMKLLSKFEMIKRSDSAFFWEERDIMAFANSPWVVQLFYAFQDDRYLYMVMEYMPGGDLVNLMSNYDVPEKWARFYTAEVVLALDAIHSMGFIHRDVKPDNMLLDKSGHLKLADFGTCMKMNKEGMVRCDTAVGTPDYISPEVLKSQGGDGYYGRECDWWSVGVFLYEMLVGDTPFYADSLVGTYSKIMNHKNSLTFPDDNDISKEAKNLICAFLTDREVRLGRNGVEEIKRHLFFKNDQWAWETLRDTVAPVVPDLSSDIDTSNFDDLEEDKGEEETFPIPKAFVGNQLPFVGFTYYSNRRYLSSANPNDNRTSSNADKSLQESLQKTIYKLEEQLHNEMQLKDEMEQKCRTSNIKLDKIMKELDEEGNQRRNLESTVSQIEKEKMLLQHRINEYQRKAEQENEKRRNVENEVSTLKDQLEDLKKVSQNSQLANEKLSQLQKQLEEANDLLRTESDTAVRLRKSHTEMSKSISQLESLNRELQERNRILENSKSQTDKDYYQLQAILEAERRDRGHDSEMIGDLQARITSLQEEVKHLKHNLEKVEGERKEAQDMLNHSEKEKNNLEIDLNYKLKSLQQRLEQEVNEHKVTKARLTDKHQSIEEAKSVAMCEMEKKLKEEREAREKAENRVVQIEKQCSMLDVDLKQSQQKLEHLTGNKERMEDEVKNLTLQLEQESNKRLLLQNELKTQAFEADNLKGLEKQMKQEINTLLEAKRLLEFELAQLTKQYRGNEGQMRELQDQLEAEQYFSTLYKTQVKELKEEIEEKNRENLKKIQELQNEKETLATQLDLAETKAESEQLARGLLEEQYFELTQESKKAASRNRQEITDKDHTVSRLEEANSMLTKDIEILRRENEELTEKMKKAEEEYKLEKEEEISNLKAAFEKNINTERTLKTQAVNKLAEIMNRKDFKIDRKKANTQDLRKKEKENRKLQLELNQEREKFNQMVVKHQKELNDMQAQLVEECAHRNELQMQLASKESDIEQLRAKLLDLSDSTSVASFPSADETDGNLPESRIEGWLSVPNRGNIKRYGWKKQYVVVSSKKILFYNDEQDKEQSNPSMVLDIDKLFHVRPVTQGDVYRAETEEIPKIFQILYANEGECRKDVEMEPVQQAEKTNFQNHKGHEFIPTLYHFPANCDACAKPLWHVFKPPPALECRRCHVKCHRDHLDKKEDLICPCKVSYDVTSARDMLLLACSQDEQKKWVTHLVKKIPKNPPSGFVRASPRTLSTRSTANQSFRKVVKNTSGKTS

% of control [1]: 100% | % of control [2]: 100%
SMILES: CCN(CC)CCCCNc1ncc2cc(-c3cc(OC)cc(OC)c3)c(NC(=O)NC(C)(C)C)nc2n1

SMILES: COCC(=O)NC/C=C/c1ccc2ncnc(Nc3ccc(Oc4ccc(C)nc4)c(C)c3)c2c1 [CP-724714]
% of control [3]: 74% | % of control [4]: 100% | % of control [5]: 84%

SMILES: COc1cc(N(C)c2ccnc3ccc(C(F)(F)F)cc23)cc(OC)c1OC
% binding [6]: 90%

dTM [7]: < 2 K
SMILES: CN(C)CCCOc1ccc(-c2cc(NCCCn3cccn3)nc(S(C)(=O)=O)n2)cc1

SMILES: N#Cc1cccc(-c2c[nH]c3ncnc(N4CCOCC4)c23)c1
% of control [8]: 100%
